Source: patent US9995734B2, “Human T cell line assay for evaluating the immunologic identity of glatiramer acetate preparations” (Mylan Inc., priority 2013, dated 2018)

Tested on: Donor 1 COP T-Cell Lines
Assay: IFN-γ ELISA, Donor 1 COP T-cell lines
Assay type: cell-based, human
Conditions: for IFN-γ (ELISA), mean: 10 μg/mL, autologous B-LCL; for IFN-γ production in response to GA: 222-2D8, 222-2E1, 222-2B11, 222-2C3, 222-2B8, 222-2G12, 222-2F12
Protocol: Culture medium was removed from cultures prepared as for proliferation assay and utilized to measure cytokine production. In most cases culture medium was collected 18-24 hours after mixing T-cells, APC, and stimulating antigen. Cytokine production was measured by ELISA or bead assay. For measuring cytokine production, 100-150 μL culture medium (100 μL if culture was to be continued, otherwise 150 μL) was removed from each well. In some cases, the culture was continued 48 hours, for a total of 72 hours of culture, and the proliferative response measured.
IFN-γ concentration in culture supernatants was measured by a sandwich ELISA using two anti-IFN-γ monoclonal antibodies. Clone 2G1 was used for capture, and biotinylated antibody from clone B133.5 was used for detection (both from Endogen). Recombinant IFN-γ was used to construct a standard curve ranging from 1000 to 15 pg/mL.
Based on the increases in ATP level observed (i.e., a ratio of relative luminescence in wells with antigen to control wells without antigen of two or more), fifteen presumptive GA-specific T-cell lines in the original plate were moved to a 24-well plate at Day 26 and restimulated with 10 μg/mL Copaxone in the presence of autologous EBV-transformed B-LCL (5×10^5 per well, i.e., 2.5×10^5/mL). At Day 27 IL-2 was added. On Day 34, the fifteen presumptive lines were restimulated with 10 μg/mL GMA or 10 μg/mL COP in the presence of mitomycin-treated autologous B-LCL (4×10^4 per well; 2×10^5 per mL), or incubated with mitomycin-treated autologous B-LCL and no antigen. On Day 35 IL-2 was added to continued cultures. On Day 36 culture supernatant was collected from test cultures and IFN-γ production measured by ELISA (48 hours after restimulation). IFN-γ protein concentrations were determined using a TMB standard curve.

[1] = 222-1G8, 48 hours, T-cells + B-LCL >1000
[2] = 222-1H12, 48 hours, T-cells + B-LCL >1000
[3] = 222-2B8, 48 hours, T-cells + B-LCL 599
[4] = 222-2B11, 48 hours, T-cells + B-LCL 354
[5] = 222-2C3, 48 hours, T-cells + B-LCL 538
[6] = 222-2D8, 48 hours after restimulation, T-cells + B-LCL 270
[7] = 222-2E1, 48 hours, T-cells + B-LCL 457
[8] = 222-2F12, 48 hours, T-cells + B-LCL 295
[9] = 222-2G12, 48 hours, T-cells + B-LCL 515

Substance | IFN-γ (ELISA), mean [1] | IFN-γ (ELISA), mean [2] | IFN-γ (ELISA), mean [3] | IFN-γ (ELISA), mean [4] | IFN-γ (ELISA), mean [5] | IFN-γ production in response to GA | IFN-γ (ELISA), mean [6] | IFN-γ (ELISA), mean [7] | IFN-γ (ELISA), mean [8] | IFN-γ (ELISA), mean [9] | further results
glatiramer acetate [COP] | >1000 pg/mL | >1000 pg/mL | >1000 pg/mL | >1000 pg/mL | >1000 pg/mL | reacted | >1000 pg/mL | >1000 pg/mL | >1000 pg/mL | >1000 pg/mL | IFN-γ (ELISA), mean (222-1C5, 48 hours, T-cells + B-LCL 821, listed as Copaxone): 700 pg/mL; IFN-γ (ELISA), mean (222-1F8, 48 hours, T-cells + B-LCL 120, listed as Copaxone): 156 pg/mL; IFN-γ (ELISA), mean (222-2C1, 48 hours, T-cells + B-LCL 369, listed as Copaxone): 417 pg/mL; IFN-γ (ELISA), mean (222-2C5, 48 hours, T-cells + B-LCL 325, listed as Copaxone): 273 pg/mL; IFN-γ (ELISA), mean (222-2D2, 48 hours, T-cells + B-LCL 68, listed as Copaxone): 133 pg/mL; IFN-γ (ELISA), mean (222-2G4, 48 hours, T-cells + B-LCL 280, listed as Copaxone): 416 pg/mL
glatiramer acetate [GMA] | >1000 pg/mL | >1000 pg/mL | >1000 pg/mL | >1000 pg/mL | >1000 pg/mL | reacted | >1000 pg/mL | >1000 pg/mL | >1000 pg/mL | >1000 pg/mL | IFN-γ (ELISA), mean (222-1C5, 48 hours, T-cells + B-LCL 821): 776 pg/mL; IFN-γ (ELISA), mean (222-1F8, 48 hours, T-cells + B-LCL 120): 169 pg/mL; IFN-γ (ELISA), mean (222-2C1, 48 hours, T-cells + B-LCL 369): 392 pg/mL; IFN-γ (ELISA), mean (222-2C5, 48 hours, T-cells + B-LCL 325): 245 pg/mL; IFN-γ (ELISA), mean (222-2D2, 48 hours, T-cells + B-LCL 68): 131 pg/mL; IFN-γ (ELISA), mean (222-2G4, 48 hours, T-cells + B-LCL 280): 438 pg/mL
